Assay results published in US10982337B2, “Corrosion inhibition” (SCHLUMBERGER TECHNOLOGY CORPORATION, priority 2015, dated 2021).

What was measured:
[1] = Corrosion weight loss test on steel coupons in HCl; parameters: Pitting Index: scale not given here
Excerpt: (§1) Such “acceptable” levels of corrosion are application-specific.

[2] = Corrosion weight loss test on steel coupons in HCl; parameters: Pitting Index: scale not given here; remark: listed apart in the source
Excerpt: as §1

[3] = Corrosion weight loss test on steel coupons in HCl; parameters: Pitting Index: scale not given here; remark: listed apart in the source
Excerpt: as §1

[4] = Corrosion weight loss test on steel coupons in HCl
Description: Experiments were carried out with coupons of the following steels: • 22Cr125 also designated 2205, a duplex alloy steel which is an iron-chromium-nickel-molybdenum alloy, used (among other things) to fabricate casing. • HS80™ (TradeMark of TENARIS), a low carbon steel used to fabricate coiled tubing. • N80, a medium carbon steel used to fabricate borehole casing. • 13Cr80, an alloy steel containing 13 wt % chromium without nickel, also used to fabricate borehole casing.
(1) Metal Type: Duplex Stainless Steel 22Cr125 Casing (2205 b6); 4 mol/L HCl, T=80° C., 3 Hours Exposure

[5] = Rotating Cylinder Electrode electrochemistry, charge transfer resistance; conditions: 5 mM inhibitor, 10 mM KI, 4 mol/L HCl, 2000 rpm, 80° C.; FIG. 6
Excerpt: (§2) EIS can be used to monitor the corrosion rate of a system. The parameter of interest is the charge transfer resistance, Rct, which can be thought of the ‘resistance’ to corrosion. A metal test piece is used as the working electrode in a three-electrode electrochemical cell with the corrosive solution as electrolyte. Impedance data is obtained by applying a small alternating voltage to the working electrode and measuring the resulting current to obtain a value of impedance. This is done at a range of frequencies. Then, in order to extract the parameter of interest, the metal/inhibitor/electrolyte interfaces are modelled as an electrical equivalent circuit and the theoretical impedance is fitted to the data. […] Charge transfer resistance, Rct, is measured. Charge transfer resistance, Rct is a measure for corrosion resistance, and is inversely proportional to corrosion rate (CR). Therefore 1/Rct is proportional to CR.

[6] = as above; conditions: 5 mM inhibitor, 10 mM KI, 4 mol/L HCl, 2000 rpm, 80° C.; FIG. 6; remark: listed apart in the source
Excerpt: as §2

[7] = as above; conditions: 5 mM inhibitor, 10 mM KI, 4 mol/L HCl, 2000 rpm, 80° C.; FIG. 6; remark: listed apart in the source
Excerpt: as §2

[8] = as above; conditions: 5 mM inhibitor, 10 mM KI, 4 mol/L HCl, 2000 rpm, 80° C.; FIG. 6; remark: listed apart in the source
Excerpt: as §2

[9] = Marine algal growth inhibition test ISO 10253; type: cell-based, Skeletonema costatum; conditions: Skeletonema costatum, cultures of the marine alga Skeletonema costatum; algal growth inhibition, 72 h, WAF in sea water, 10-1000 mg/L tested
Description: (§3) The acute toxicity of NMHQ to the marine algae Skeletonema costatum was tested. Cultures of the algae Skeletonema costatum were exposed to a series of concentrations of NMHQ. The test was carried out according to ISO protocol ‘ISO 10253 Water quality—Marine algal growth inhibition test with Skeletonema costatum and Phaeodactylum tricornutum’.
(§4) In addition to blank, concentrations of 10, 100, 1000 mg/L (WAF) in sea water were tested.

Skeletonema costatum = test: Marine algal growth inhibition test ISO 10253; type: cell-based
Description: as §3, §4

[10] = 0.3000 wt % (10.97 mmol/L), 4 mol/L HCl, 80° C., 3 hours

With `c1ccc2c(c1)CCCN2Cc1cccc2ccccc12` [NMTHQ] the “Pitting Index” value ([1]; 0.1367 wt % (5.00 mmol/L), no KI, 4 mol/L HCl, 80° C., 3 hours) was 4, the “Pitting Index” value ([1]; 0.1382 wt % (5.06 mmol/L) + KI 10 mmol/L) was 0 and the “Pitting Index” value [1, 10] was 0. The “inhibition performance compared at equivalent molar concentrations (in words)” value ([1]; 13Cr80, 4 mol/L HCl, 80° C., 3 hours) was “superior to the known acid corrosion inhibitor, NMQCl”, the “factor by which addition of 10 mM potassium iodide reduces the weight loss” value ([1]; 13Cr80, NMTHQ 4.0-5.1 mmol/L) was 10.5 and the “Pitting Index” value ([2]; 0.1368 wt % (5.00 mmol/L), no KI, 4 mol/L HCl, 80° C., 3 hours) was 3. For the same compound, the “Pitting Index” value ([2]; 0.1389 wt % (5.08 mmol/L) + KI 10 mmol/L) was 0, the “Pitting Index” value ([2]; 0.2065 wt % (7.55 mmol/L), 4 mol/L HCl, 80° C., 3 hours) was 2 and the “Pitting Index” value [2, 10] was 0. The “Pitting Index” value ([2]; 0.3013 wt % (11.02 mmol/L), 4 mol/L HCl, 80° C., 3 hours) was 0, the “Pitting Index” value ([2]; 0.3017 wt % (11.04 mmol/L), 4 mol/L HCl, 80° C., 3 hours) was 0 and the “factor by which addition of 10 mM potassium iodide reduces the weight loss” value ([2]; N80, NMTHQ 4.0-5.1 mmol/L) was 5.3. For the same compound, the “Pitting Index” value ([3]; 0.0055 wt % (0.20 mmol/L), 4 mol/L HCl, 80° C., 3 hours) was 5, the “Pitting Index” value ([3]; 0.0273 wt % (1.00 mmol/L), 4 mol/L HCl, 80° C., 3 hours) was 2 and the “Pitting Index” value ([3]; 0.11 wt % (4.02 mmol/L), 4 mol/L HCl, 80° C., 3 hours) was 0. The “Pitting Index” value ([3]; 0.1366 wt % (5.00 mmol/L) + KI 10 mmol/L) was 0, the “Pitting Index” value ([3]; 0.1366 wt % (5.00 mmol/L), no KI, 4 mol/L HCl, 80° C., 3 hours) was 0 and the “Pitting Index” value ([3]; 0.192 wt % (7.02 mmol/L), 4 mol/L HCl, 80° C., 3 hours) was 0. For the same compound, the “factor by which addition of 10 mM potassium iodide reduces the weight loss” value ([3]; HS80, NMTHQ 4.0-5.1 mmol/L) was 8.8, the “Pitting Index” value ([4]; 0.11 wt % (4.02 mmol/L) + KI 10 mmol/L, 2205 (b6)) was 0 and the “Pitting Index” value ([4]; 0.11 wt % (4.02 mmol/L), no KI, 2205 b6, 4 mol/L HCl, 80° C., 3 hours) was 4. The “Pitting Index” value ([4]; 0.1367 wt % (5.00 mmol/L), KI 0, 2205 (b5)) was 4, the “Pitting Index” value ([4]; 0.1368 wt % (5.00 mmol/L) + KI 20 mmol/L, 2205 (b5)) was 0 and the “Pitting Index” value ([4]; 0.1913 wt % (7.00 mmol/L), 2205 b6, 4 mol/L HCl, 80° C., 3 hours) was 3. For the same compound, the “Pitting Index” value ([4]; 0.30 wt % (10.97 mmol/L), 2205 b6, 4 mol/L HCl, 80° C., 3 hours) was 0, the “Pitting Index” value ([4]; 0.547 wt % (20.01 mmol/L), 2205 b6, 4 mol/L HCl, 80° C., 3 hours) was 0 and the “inhibition performance compared at equivalent molar concentrations (in words)” value ([4]; 22Cr125, 4 mol/L HCl, 80° C., 3 hours) was “very similar to the known acid corrosion inhibitor NMQCl”. The “factor by which addition of 10 mM potassium iodide reduces the weight loss” value ([4]; 2205 (b6), NMTHQ 4.0-5.1 mmol/L) was 9.4, the “1/Rct (proportional to corrosion rate), NMHQ compared with NMQCl” value (“1/Rct … compared with NMQCl” below) [5] was “very similar results” and the “1/Rct … compared with NMQCl” value [6] was “very similar results”. For the same compound, the “1/Rct … compared with NMQCl” value [7] was “significant lower”, the “1/Rct … compared with NMQCl” value [8] was “more effective inhibitor” and the EC50 at 72 h [9] was > 1000 µg/mL. For the same compound, the EC90 at 72 h [9] was > 1000 µg/mL, the “NOEC(72 h)” value (Skeletonema costatum; algal growth inhibition, 72 h, WAF in sea water, 10-1000 mg/L tested) was 1000 mg/L and the “aquatic toxicity (in words)” value (Skeletonema costatum; seawater under neutral conditions (pH 7.7-8.3)) was “zero aquatic toxicity”.
